Source: patent publication US20260115250A1, “METHODS OF TREATING AGE-RELATED MACULAR DEGENERATION” (Character Biosciences, Inc., priority 2022, published 2026)
Peptide text beside a SMILES is read from it.

Experiments:
[1] = DMPC solubility assay, 0.5 mM DMPC (turbidity reduction); type: biochemical; conditions: FIGS. 2A-2D and 3A-3C
Procedure, shortened: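 Peptides (100 μM final, or 3.16-100 μM for titrations) incubated with 0.5 mM DMPC in water for 15 minutes at room temperature. Turbidity read as absorbance at 405 nm; EC50 from non-linear regression, mean+SD over two runs.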

[2] = peptide binding to non-oxidized and oxidized lipids (SPR); conditions: immobilized peptide; RU normalized to DMPC
Protocol: FIGS. 25A-25O show peptide binding activity to non-oxidized and oxidized lipids via SPR for indicated peptides. Peptides were reconstituted to 50 μg/mL in 10 mM acetate buffer, pH 4.5 and immobilized to ˜200 RU on a CM5 chip via amine coupling. Non-oxidized lipids (DMPC & POPC) and oxidized lipids (POVPC & KOdiA-PC) were diluted to 100 µM in HBS-EP running buffer and exposed to the chip for binding (n=3) at a flow rate of […] for 120 seconds. The surface was regenerated with 20% EtOH. T-001 served as a positive control and T-031 served as a negative control on each chip. For each peptide, the RU response for all lipids was normalized to the DMPC RU values.

[3] = system: HepG2 cells; test: HepG2 GAG dependent cholesterol import (with or without heparin); type: cell-based; conditions: HepG2, 10 μM peptide, with or without 100 μg/mL heparin
Protocol: HepG2 cells were seeded on 96-well plates at 10,000 cells per well and grown to confluence. A 2× solution of 500 μM DMPC and 50 μM BODIPY-Cholesterol with or without 100 μg/mL heparin was prepared in serum free EMEM. Peptides were diluted to 20 μM in serum-free EMEM (a 2× solution). Peptides were added to lipid solution in equal parts (60 μL each) and incubated for 1 hour at 37° C. HepG2 cells were serum starved in serum-free EMEM for 1 hour at 37° C. Peptide: Lipid complexes (100 μL total volume per well) were transferred to HepG2 cells for 2 hours at 37° C. Cells were washed, fixed, and intracellular fluorescence was read on Promega GloMax at 475 nm excitation, 500-550 emission. Fluorescence values were background corrected from no treatment conditions. Data are presented ±SD for 2 runs.

[4] = molecular target: T1, LDLR (Homo sapiens, UniProt P01130); test: lipid-dependent LDLR binding (SPR), single concentration; conditions: 1 μM peptide with or without 25 μM DMPC
Protocol: Peptides were diluted in 1×HBS-N buffer with 1 mM CaCl2 to a final concentration of 1 μM and incubated with or without 25 μM DMPC for 1 hour at RT to form lipid complexes. Each peptide was tested in duplicate. LDLR was diluted to 10 μg/mL in 10 mM acetate buffer pH 4.5 and was immobilized (˜400RU) on a CM5 chip via amine coupling utilizing 1×HBS-P+ buffer with 1 mM CaCl2. Test peptides (with or without DMPC) were exposed to immobilized LDLR at a flow rate of […] for 120 seconds in HBS-N with 1 mM CaCl2. Between cycles the surface was regenerated with 3, 30 second injections of 10 mM NaOH and 100 mM EDTA. Data are plotted as max RU values, averaged from three separate runs.
Target sequence in this assay (P01130 22-860): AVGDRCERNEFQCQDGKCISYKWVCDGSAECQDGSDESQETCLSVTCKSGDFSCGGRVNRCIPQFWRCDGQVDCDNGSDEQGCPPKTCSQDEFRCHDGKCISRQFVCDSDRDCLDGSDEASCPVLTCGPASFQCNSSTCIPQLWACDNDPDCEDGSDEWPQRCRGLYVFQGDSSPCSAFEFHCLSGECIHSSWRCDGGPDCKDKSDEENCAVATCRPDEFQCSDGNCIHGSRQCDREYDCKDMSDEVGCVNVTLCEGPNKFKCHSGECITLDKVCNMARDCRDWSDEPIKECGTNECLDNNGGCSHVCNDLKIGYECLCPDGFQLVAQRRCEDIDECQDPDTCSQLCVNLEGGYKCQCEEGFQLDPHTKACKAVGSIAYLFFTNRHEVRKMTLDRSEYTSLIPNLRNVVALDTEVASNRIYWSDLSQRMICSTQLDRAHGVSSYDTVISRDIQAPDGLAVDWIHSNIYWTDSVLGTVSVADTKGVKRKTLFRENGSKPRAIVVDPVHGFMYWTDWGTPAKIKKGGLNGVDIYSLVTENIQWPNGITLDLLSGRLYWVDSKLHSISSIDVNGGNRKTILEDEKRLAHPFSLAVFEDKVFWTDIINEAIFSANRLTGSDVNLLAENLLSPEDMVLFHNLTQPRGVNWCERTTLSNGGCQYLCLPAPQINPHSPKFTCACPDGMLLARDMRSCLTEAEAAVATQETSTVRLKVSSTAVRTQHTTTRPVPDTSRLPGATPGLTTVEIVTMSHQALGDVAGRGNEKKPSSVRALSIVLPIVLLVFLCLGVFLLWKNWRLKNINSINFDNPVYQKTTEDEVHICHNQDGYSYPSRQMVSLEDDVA

[5] = system: HMC3 cells; test: HMC3 cholesterol efflux; type: cell-based, human
Protocol: (§1) FIGS. 27A-27B and FIG. 28 illustrate HMC3 cholesterol efflux. Fully confluent 96-well plates of HMC3 cells were treated for 1 hour in serum-free EMEM containing 10 mM methyl-β-cyclodextrin, 100 μM cholesterol, and 25 μM BODIPY cholesterol. Cells were then washed and incubated overnight in serum free EMEM containing 1 μM LXR agonist GW3965, 2 μg/mL ACAT inhibitor, and 0.2% BSA (LXR Agonist treated), or serum-free EMEM containing 2 μg/mL ACAT inhibitor, and 0.2% BSA (Control). Cells were washed and incubated with 20 μM peptides diluted in serum-free Fluorobrite DMEM for 4 hours at 37° C. Media was transferred to a new 96-well plate and fresh serum-free Fluorobrite DMEM was placed on the cells. Media and cellular fluorescence were read on a Promega GloMax at 475 nm excitation, 500-550 emission. Fluorescence values were background corrected from no treatment conditions and percent efflux was calculated by the following equation: % efflux=(Media Fluorescence values)/(Media+Cell Fluorescence values). Data are presented as mean+SD over two runs per peptide.
as §1, with “FIGS. 30A-30J show” for “FIGS. 27A-27B and FIG. 28 illustrate”, “cholesterol efflux titration curves for the indicated peptides.” for “cholesterol efflux.”, “μM” for “μM LXR agonist”, “or serum free” for “or serum-free”, “with 0-100” for “with 20”, “peptides serially” for “peptides”

[6] = DMPC solubility titration, 1 mM DMPC; type: biochemical; conditions: 3.16-100 μM peptides, 15 minutes
Protocol: FIGS. 4A-4B illustrate a screening assay based on DMPC solubility, measured by reducing turbidity of DMPC liposome solutions, for a subset of the peptides in FIGS. 1B-1I. FIGS. 4A-4B illustrate DMPC solubility titration curves. Peptide stocks were diluted to 200 μM in H2O (a 2× solution) and serially diluted in H2O over 4 concentrations, then 50 μL of peptide solutions were distributed in triplicate into 96-well plates. A 2 mM solution of 1,2-dimyristoyl-sn-glycero-3-phosphocholine (DMPC) in H2O was prepared, and using a multichannel pipet, 50 μL DMPC solution was rapidly added to the plate. Peptide and lipid solutions were incubated at room temperature for 15 minutes with final concentrations of 3.16-100 μM peptides and 1 mM DMPC. After 15 minutes, absorbance was read on a plate reader at 405 nm. […] Data are presented as mean+SD over two runs. Non-linear regression was used to calculate EC50 values.

[7] = molecular target: T1, LDLR; test: KD, Peptide (μM)
Excerpt: Table printed on a drawing sheet, FIG. 24B
Title: Buffer: HBS + 0.005% P20
Head of the field: KD, Peptide (μM)
The patent's description of the figure: FIGS. 24A-24B are tables showing the binding kinetics results of LDLR binding assays (SPR), lipid-dependent binding with a low-surfactant preparation as described herein for select peptides shown in FIG. 1A-1I.
First copying reader's note: Continued from FIG. 24A; KD values are LDLR binding by SPR for the peptide alone and for its DMPC lipid complex, with the error given in the same cell after ±.
Where the first naming reader finds the target: description_of_the_figure: FIGS. 24A-24B are tables showing the binding kinetics results of LDLR binding assays (SPR)
Target sequence in this assay (P01130 22-860 limits assumed): as the sequence (P01130 22-860) above

[8] = system: ARPE-19 cells; test: ARPE-19 cell viability assay (Cell Titer Glo); type: cell-based, human; conditions: 100 μM peptide, 1.5 hours
Protocol: ARPE-19 cells were seeded in 96-well plates at 25,000 cells/well and allowed to adhere to the plate surface for at least 24 hours. Peptides were diluted in serum-free DMEM: F12 to a final concentration of 100 μM. Cells were washed, then incubated in 100 μM peptide solution for 1.5 hours at 37° C. Plates were brought to room temperature for 30 minutes, then washed with DPBS. Cells were incubated in a 1:1 mixture of DPBS and Cell Titer Glo 2.0 Reagent for 10 minutes at room temperature, then cell luminescence was read on a plate reader. Viability values were background corrected, and 0% viability is determined by luminescence values of cells treated with 1% Triton-X-100. Data are presented as mean+SD over two separate runs.

## T-029: therapeutic peptide (HLRKLRKRLLRDGDKLCDRLAEYCARAKEAFDR)
[1]
  DMPC solubilizing activity: significant activity
[2]
  binding to oxidized lipids relative to DMPC: binding to at least one oxidized lipid that was equivalent or improved to binding against DMPC
[3]
  GAG dependence of cholesterol import: rely on GAG binding for cholesterol import activity
[4]
  lipid-dependent LDLR binding (RU with lipid vs peptide alone): lipid-dependent LDLR binding activity

## REFRALFKELADYFRDAW [T-084, therapeutic peptide]
[5]; HMC3, 0-100 μM peptide, LXR agonist
  cholesterol efflux titration: concentration-dependent increase in cholesterol efflux
[5]; HMC3, 20 μM peptide, 4 hours
  cholesterol efflux in the presence of LXR agonist: greater cholesterol efflux
[6]
  EC50: 16.1 µM

## CC(C)C[C@H](NC(=O)[C@H](Cc1c[nH]cn1)NC(=O)[C@H](CO)NC(=O)[C@H](C)NC(=O)[C@@H](N)CC(C)C)C(=O)N[C@@H](CCCNC(=N)N)C(=O)N[C@@H](CCCCN)C(=O)N[C@@H](CC(C)C)C(=O)N[C@@H](CCCNC(=N)N)C(=O)N[C@@H](CCCCN)C(=O)N[C@@H](CCCNC(=N)N)C(=O)N[C@@H](CC(C)C)C(=O)N[C@@H](CC(C)C)C(=O)N[C@@H](CCCNC(=N)N)C(=O)N[C@@H](CC(=O)O)C(=O)N[C@@H](C)C(=O)N[C@@H](CC(=O)O)C(=O)N[C@@H](CC(=O)O)C(=O)O [T-073]
[7]
  Kd: 4.27 ± 0.19 µM

## CC(C)C[C@H](NC(=O)[C@H](CCCNC(=N)N)NC(=O)[C@H](CC(=O)O)NC(=O)[C@@H](NC(=O)[C@H](CC(C)C)NC(=O)[C@H](CCCCN)NC(=O)[C@H](CC(=O)O)NC(=O)CNC(=O)[C@H](CC(=O)O)NC(=O)[C@H](CCCNC(=N)N)NC(=O)[C@H](CC(C)C)NC(=O)[C@H](CC(C)C)NC(=O)[C@H](CCCNC(=N)N)NC(=O)[C@H](CCCCN)NC(=O)[C@H](CCCNC(=N)N)NC(=O)[C@H](CC(C)C)NC(=O)[C@H](CCCCN)NC(=O)[C@H](CCCNC(=N)N)NC(=O)[C@H](CC(C)C)NC(=O)[C@@H](N)Cc1c[nH]cn1)C(C)C)C(=O)N[C@@H](C)C(=O)N[C@@H](CCC(=O)O)C(=O)N[C@@H](Cc1ccc(O)cc1)C(=O)N[C@H](C(=O)N[C@@H](C)C(=O)N[C@@H](CCCNC(=N)N)C(=O)N[C@@H](C)C(=O)N[C@@H](CCCCN)C(=O)N[C@@H](CCC(=O)O)C(=O)N[C@@H](C)C(=O)N[C@@H](Cc1ccccc1)C(=O)N[C@@H](CC(=O)O)C(=O)N[C@@H](CCCNC(=N)N)C(=O)O)C(C)C [T-077] (H-HLRKLRKRLLRDGDKLVDRLAEYVARAKEAFDR-OH)
[7]
  Kd: 33.2 ± 37.7 µM
[8]
  ARPE-19 cell viability: substantial change in viability
